# Measured values taken from paper PMC6927504, “Screening of House Dust from Chinese Homes for Chemicals with Liver X Receptors Binding Activities and Characterization of Atherosclerotic Activity Using an in Vitro Macrophage Cell Line and ApoE^−/− Mice” (Environmental Health Perspectives, 2019).
# Tested on: mouse peritoneal macrophages
# Experiment: Foam cell formation in peritoneal macrophages isolated from exposed C57BL/6 mice
# Assay type: in vivo
# Conditions: 200 mg/kg BW for 7 d, p<0.05
# Experimental: RAW264.7 cells or mouse peritoneal macrophages were plated in 24-well plates at 6.0×10^4 cells/well and grown overnight. Then the medium was removed and fresh DMEM-F12 containing 10% FBS, 20μg/mL oxidized low-density lipoprotein (ox-LDL), and 0.1% DMSO (control; n=3 ) or TPHP at the concentration of 1–20,000 nM ( n=3 per group) was added. The cells were washed with PBS, followed by fixing in 4% paraformaldehyde for 30 min and staining with boron-dipyrromethene (BODIPY) 493/503 ( 20μg/mL ) and 4′,6-diamidino-2-phenylindole (DAPI; 100 ng/mL ) for 10 min. Foam cell formation was analyzed by high-content microscopy using ImageXpress® Micro XL (Molecular Devices). From each well, 25 image fields were scanned, and MetaXpress® (Molecular Devices) was used to quantify compartmentalized changes in the fluorescence of each cell.
# All experiments related to animals were approved by the institutional animal care and use committee of Peking University and followed the guidelines for animal experiments of the university as well as for experimental animals in China. […] Body weight (BW) was measured every week during the dosing period. […] Considering that this study assessed the effects of short-term exposure to TPHP, whereas humans are exposed to TPHP over a lifelong period, the present study used exposure doses that were higher than that of human exposure from house dust. […]
smiles,measurement,value
"O=P(Oc1ccccc1)(Oc1ccccc1)Oc1ccccc1 [TPHP, triphenyl phosphate]",Foam cell staining in peritoneal macrophages relative to control,2.88±0.95 fold
